Peptide text beside a SMILES is read from it. * marks the point of attachment. Stearoyl = CCCCCCCCCCCCCCCCCC(=O)*

Data set [1] concerns HIV-1 strain NL4-3 pseudovirus (D36G mutant). The class given is cell-based. As to the method:
The supernatant was discarded from the wells. […] Inhibition rate (%) and IC50 value were calculated.

Another data set concerns HIV-1 strain JRCSF. Format: cell-based. The procedure: Inhibition rate (%) and IC50 value were calculated.
The subject of data set [2] is NL4-3 pseudovirus carrying T-20 resistance mutation site of NHR. Description: inhibition of T-20 resistant strains. The class given is cell-based, HIV-1. To be noted: strains with single or double mutations.
The subject of data set [3] is HIV-2 strain ROD (infectious). Description: inhibition of HIV-2. Format: cell-based. Particulars: HIV-2 ROD.
The test system of data set [4] is SIV pseudoviruses SIVpbj and SIV239. Description: inhibition of SIV pseudoviruses. Format: cell-based.
A short description of data set [5]: circular dichroism secondary structure analysis of the inhibitors themselves. The class given is physicochemical.
Data set [6] in a line: pharmacokinetic analysis in SD rats. To be noted: for level at 72 h / level at time molar at 72 h: both, SD, rat, serum, 6 mg/kg. The procedure:
The pharmacokinetic parameters were calculated using a non-compartmental analysis model (NCA).

A further data set in a line: Figure 9. The text has this: Table printed on a drawing sheet, Figure 9
First reader's note: Panel B of Figure 9; each value cell holds the value ± its error, and each column is one route of administration.

By IC50 is commonly meant the concentration that inhibits the measured activity by half. Consider `CCCCCCCCCCCCCCCCCC(=O)NCCCC[C@H](NC(=O)[C@H](CCC(=O)O)NC(=O)[C@H](CC(C)C)NC(=O)[C@H](CCCCN)NC(=O)[C@H](CCCCN)NC(=O)[C@H](CC(C)C)NC(=O)[C@H](CCC(=O)O)NC(=O)[C@H](CCC(=O)O)NC(=O)[C@H](CCC(=O)O)NC(=O)[C@H](CC(N)=O)NC(=O)[C@H](CCCCN)NC(=O)[C@H](CCCCN)NC(=O)[C@H](CCC(N)=O)NC(=O)[C@H](CCC(N)=O)NC(=O)[C@H](CCC(=O)O)NC(=O)[C@H](CCC(=O)O)NC(=O)[C@H](C)NC(=O)[C@H](CCCCN)NC(=O)[C@H](CCCCN)NC(=O)[C@H](CC(C)C)NC(=O)[C@H](CC(C)C)NC(=O)[C@H](CCC(=O)O)NC(=O)[C@H](CCC(=O)O)NC(=O)[C@@H](NC(=O)[C@H](CCCCN)NC(=O)[C@H](CCC(N)=O)NC(=O)[C@H](CCC(=O)O)NC(=O)[C@H](Cc1c[nH]c2ccccc12)NC(C)=O)[C@@H](C)CC)C(N)=O` [LP-80] (Ac-WEQKIEELLKKAEEQQKKNEEELKKLEK(Stearoyl)-NH2), for which the IC50 is 2 pM in data set [1] (Entry of NL4-3 (D36G), read-out: IC50 for inhibiting pseudovirus) and 2 pM in the data set on HIV-1 strain JRCSF (Replication of JRCSF, read-out: IC50 for inhibiting replicative virus). Moreover, the “inhibitory activity against NL4-3 entry (in words)” value in data set [1] (compared with LP-52) is reported as “even greater than that of C16-modified LP-52”. In addition, the “inhibitory activity against JRCSF replication (in words)” value in the data set on HIV-1 strain JRCSF (compared with LP-52) was “even greater than that of C16-modified LP-52”. For the same molecule, in data set [2], the “inhibitory activity against T-20 resistant strains (in words)” value is “thousands to tens of thousands of times better than that of the LP-40”. The “inhibitory activity against HIV-2 (in words)” value in data set [3] is recorded as “extremely potent inhibitory activity”. In addition, in data set [4], the “inhibitory activity against SIV (in words)” value was “extremely potent inhibitory activity”. Further, the “secondary structure of the inhibitor itself (in words)” value in data set [5] (10 μM, 20 μM and 40 μM in PBS) was “distinct helical structure”. Besides, the “helix content and Tm value of the inhibitor itself (in words)” value in data set [5] (among the four potent lipopeptides) was “the higher helix content and Tm value”. For the same molecule, the “serum concentration as folds of the IC50 value (2 pM)” value in data set [6] (72 hours after intravenous injection) was 1010.56 folds; in data set [6] (72 hours after subcutaneous injection), 894.51 folds. Besides, the level at 72 h in data set [6] (iv) is 7.75 ng/mL; in data set [6] (sc), 6.86 ng/mL. The level at time molar at 72 h in data set [6] (iv) worked out at 2.02 nM; in data set [6] (sc) it was 1.79 nM. The “Fabs | %” value in the data set “Figure 9” amounted to 39.53%.

These data come from patent publication US11680086B2, “Lipopeptide for potently inhibiting HIV, derivative thereof, pharmaceutical composition thereof and use thereof” (Institute of Pathogen Biology, Chinese Academy of Medical …, priority 2017, dated 2023).
